Data reported in PubChem BioAssay (NCI).
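The compound was tested at five concentrations on cells cultured in 96-well plates, with a 48-hour exposure period. At the GI50, growth is halved. At the TGI there is no net growth.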

Tested on: SK-MEL-2 melanoma
Experiment: DTP human tumour cell line panel, 48 h

| Structure (SMILES) | GI50 [µM] | TGI [µM] |
| --- | --- | --- |
| NCCCn1c2c(c3ccc([N+](=O)[O-])cc3c1=O)C(=O)c1cc(I)ccc1-2 | 0.649 | 2.28 |
| CN(Cc1cnc2nc(N)nc(N)c2n1)c1ccc(C(=O)N[C@@H](CCS(=O)(=O)O)C(=O)O)cc1 | – | > 100 |

Tested on: EKVX NSCLC
Experiment: DTP human tumour cell line panel, 48 h

| Structure (SMILES) | GI50 [µM] | TGI [µM] |
| --- | --- | --- |
| COc1ccc(Cl)cc1NC(=O)c1ccc(NC2=C(Cl)C(=O)N(Cc3ccccc3)C2=O)cc1 | > 100 | > 100 |
| Cc1cccc(NC2=C(Cl)C(=O)c3nc(C)ccc3C2=O)c1 | 1.47 | 2.8 |
| O=Cc1cc2c(cc1-c1cc3c(cc1C=O)OCO3)OCO2 | – | > 100 |
| C/C(=N\NC(N)=O)c1sc(-c2nc(C)c(/C(C)=N/NC(N)=O)s2)nc1C | – | > 100 |
| CN(C)CCNC(=O)Cc1ccccc1Nc1c(Cl)cccc1Cl | – | 43 |
| COc1cc2c(cc1OCCCN1CCN(CCCOc3cc4c(cc3OC)C(=O)N3CC(F)(F)C[C@H]3C=N4)CC1)N=C[C@@H]1CC(F)(F)CN1C2=O | 29.1 | > 100 |
| C[N+](C)(C)CC(=O)N/N=C(/Cc1cc(=O)oc2cc(O)ccc12)C(=O)Nc1ccc(Cl)cc1 | – | > 100 |
| FC(F)(F)c1ccc2nc(NCc3ccccc3)c(-c3ccccc3)nc2c1 | – | > 100 |
| COc1cc(C[P+](c2ccccc2)(c2ccccc2)c2ccccc2)cc(OC)c1OC | – | > 100 |
| C=C(C)[C@@H]1CC[C@]2(CN)CC[C@]3(C)[C@H](CC[C@@H]4[C@@]5(C)CCCNC(C)(C)[C@@H]5CC[C@]43C)[C@@H]12 | 1.77 | 3.39 |
| CCCN(CCC)c1c([N+](=O)[O-])cc(C(=O)N(CC)CC)cc1[N+](=O)[O-] | – | 61.3 |
| C=C(CN(C)Cc1ccccc1)c1ccc(NC(=O)c2ccc(C(=C)CN(C)Cc3ccccc3)cc2)cc1 | 73.3 | > 100 |
| COC(=N)c1csc(C2OC(CO)C(O)C2O)n1 (centres undefined) | – | > 100 |
| CN1Nc2ccccc2CC1=O | – | > 100 |
| O=C(CNc1ccc(Cl)cc1Cl)Nn1c(-c2ccccc2)nc2ccccc2c1=O | – | 35.5 |
| CO[C@@H]1CC[C@]2(C)OC[C@H](C)[C@@H]3C[C@@H](C)[C@@H](OC(C)=O)[C@@H]4[C@H]3[C@@H]2O[C@H]4C[C@@]1(C)O | > 100 | > 100 |
| Oc1oc(C(=C2N=c3ccccc3=N2)c2ccc(Cl)cc2)c(O)c1-c1ccc(Cl)cc1 | – | 7.41 |
| Cc1nc2c(N)ncnc2o1 | – | > 100 |
| CCOC(=O)c1c(C)c2c(n1Cc1ccccc1)CSCC2=O | 16.3 | > 100 |
| CCCCCCCCCCCC[N+]12CC[N+](CCN)(CC1)CC2 | – | > 100 |
| C[C@H](CCOc1cccc(CC(=O)O)c1)N(Cc1cccc(C(F)(F)F)c1Cl)CC(c1ccccc1)c1ccccc1 | 4.04 | 19.1 |
| O=[N+]([O-])c1cccnc1N=Nc1c(O)[nH]c2ccccc12 | – | 66 |
| O=C1C=C(Nc2ccc(Cl)cc2C(=O)c2ccccc2)c2ccccc2C1=O | – | > 100 |
| O=C1C=C(c2c(O)ccc3ccccc23)c2cc(O)ccc2C1=O | – | 38.2 |
| O=C(c1ccc([N+](=O)[O-])cc1[N+](=O)[O-])N(/N=C/C=C/c1ccccc1)c1nnc(-c2ccccc2)c(-c2ccccc2)n1 | – | > 100 |
| COc1ccc(NC(=O)CSc2nnc(-c3ccc(NC(C)=O)cc3)o2)cc1 | – | 43.4 |
| CC(=O)N/C(=C\c1ccccc1/C=C(\NC(C)=O)c1nc2cc(C)c(C)cc2[nH]1)c1nc2cc(C)c(C)cc2[nH]1 | – | 32.5 |
| NNc1ncnc2nc[nH]c12 | 7.17 | > 100 |
| NCCCn1c2c(c3ccc([N+](=O)[O-])cc3c1=O)C(=O)c1cc(I)ccc1-2 | 0.79 | 2.32 |
| CN(Cc1cnc2nc(N)nc(N)c2n1)c1ccc(C(=O)N[C@@H](CCS(=O)(=O)O)C(=O)O)cc1 | – | > 100 |

Tested on: HCT-15 colon
Experiment: DTP human tumour cell line panel, 48 h

| Structure (SMILES) | GI50 [µM] | TGI [µM] |
| --- | --- | --- |
| Nc1c(C(=O)Nc2ccccn2)sc2nc3c(cc12)C(=O)CCC3 | 0.812 | > 100 |
| COc1ccc(Cl)cc1NC(=O)c1ccc(NC2=C(Cl)C(=O)N(Cc3ccccc3)C2=O)cc1 | 10.7 | > 100 |
| Cc1cccc(NC2=C(Cl)C(=O)c3nc(C)ccc3C2=O)c1 | 0.431 | 2.09 |
| O=Cc1cc2c(cc1-c1cc3c(cc1C=O)OCO3)OCO2 | – | > 100 |
| C/C(=N\NC(N)=O)c1sc(-c2nc(C)c(/C(C)=N/NC(N)=O)s2)nc1C | – | 46.1 |
| CN(C)CCNC(=O)Cc1ccccc1Nc1c(Cl)cccc1Cl | – | 29.6 |
| COc1cc2c(cc1OCCCN1CCN(CCCOc3cc4c(cc3OC)C(=O)N3CC(F)(F)C[C@H]3C=N4)CC1)N=C[C@@H]1CC(F)(F)CN1C2=O | 16.2 | 36.7 |
